Test results as given in US20120022143A1, “RNA Interference Mediated Inhibition of the Thymic Stromal Lymphopoietin (TSLP) Gene Expression Using Short Interfering Nucliec Acid (siNA)” (Merck Sharp & Dohme Corp, priority 2009, published 2012).
[invAb] = inverted abasic unit; d = 2'-deoxy (DNA); m = 2'-O-methyl; r = 2'-OH (RNA); f = 2'-fluoro

Legend:
mTSLP mRNA = experiment: Initial screening: mouse TSLP mRNA knock-down by RT-PCR (Taqman) after RNAiMax transfection of NIH 3T3 cells; format: cell-based; details: 10 nM siNA, 24 hrs post-transfection, mean ± s.d., summary from 2 screens
Procedure: (§1) All cells were obtained from ATCC (Manassas, Va.) unless otherwise indicated. Cells were grown and transfected under standard conditions, which are detailed below for each cell line.
NIH 3T3 (murine; ATCC cat#CRL-1658): Cells were cultured at 37° C. in the presence of 5% CO2 and grown in Dulbecco's modified Eagle's medium (DMEM) with 4 mM L-glutamine adjusted to contain 1.5 g/L sodium bicarbonate and 4.5 g/L glucose and supplemented with fetal bovine serum at a final concentration of 10% and 100 μg/mL of streptomycin and 100 U/mL penicillin.
(§2) All transfections were performed using RNAiMax (Invitrogen Cat# 13778-150) as per the manufacturer's instructions.
(§3) Both human and murine cell lines were transfected in the similar fashion. Cells were plated in all wells of a tissue-culture treated, 96-well plate at a final count of 5,000 cells/well in […], of appropriate culture media. Cells were cultured for 24 hours after plating at 37° C. in the presence of 5% CO2.
(§4) After 24 hours, complexes containing siNA and RNAiMax were created as follows: A solution of RNAiMax diluted 33-fold in OPTI-MEM was prepared. In parallel, solutions of the siNAs for testing were prepared to a final concentration of 120 nM in OPTI-MEM. After incubation of RNAiMax/OPTI-MEM solution at room temperature for 5 min, an equal volume of the siNA solution and the RNAiMax solution were added together for each of the siNAs.
(§5) This solution was incubated at room temperature for 20 minutes. After incubation, 20 uL of the solution was added to each of the relevant wells.
(§6) The final concentration of siNA in each well was 10 nM and the final volume of RNAiMax in each well was 0.3 ul.
(§7) The time of incubation with the RNAiMax-siNA complexes was 24 hours, unless otherwise indicated. There was no change in media between the transfection and harvesting of the cells unless otherwise indicated.
(§8) RNA was extracted from a 96-well plate using the TaqMan® Gene Expression Cells-to-CT™ Kit (Cat# 4399002) with a modified protocol. Briefly, a 60 uL (1 plate) or 110 uL (2 plates) of the Lysis Solution with DNase I was dispensed into each well of the Lysis Buffer Plate (twin.tec full skirt plate). The lysis buffer and stop plates were stored at 4° C. until the cells were washed.
(§9) The plate was spun at 1100 rpm for 5 minutes. The culture medium was aspirated and discarded from the wells of the culture plate. The lysis was performed automatically using a BioMek FX instrument and method. After the Biomek method was completed, the lysis plate was incubated for 2 min. at room temperature. The lysis plate can be stored for 2 hours at 4° C., or at −20° C. or −80° C. for two months.
(§10) Each well of the reverse transcription plate required 10 uL of 2× reverse transcriptase Buffer, luL of 20× reverse transcription enzyme and 2 uL of nuclease-free water. The reverse transcription master mix was prepared by mixing 2× reverse transcription buffer, 20× reverse transcription enzyme mix, and nuclease-free water. 13 uL of the reverse transcription master mix was dispensed into each well of the reverse transcription plate (semi-skirted). A separate reverse transcription plate was prepared for each cell plate. The plate was loaded onto a Biomek NX or Biomek FX Dual-96 and the Biomek method was run. The program is programmed to automatically added 7 uL of lysate from the cell lysis procedure described above into each well of the reverse transcription plate. The plate is sealed and spun on a centrifuge (1000 rpm for 30 seconds) to settle the contents to the bottom of the reverse transcription plate. The plate is placed in a thermocycler at 37° C. for 60 min, 95° C. for 5 min, and 4° C. until the plate is removed from the thermocycler. Upon removal, if not used immediately, the plate was frozen at −20° C.
A series of probes and primers were used to detect the various mRNA transcripts of the genes of TSLP, IL-8 and GAPDH in human cell lines. […]

TSLP mRNA = experiment: Initial screening: TSLP mRNA knock-down by RT-PCR (Taqman) after RNAiMax transfection of NHLF cells; format: cell-based; details: 10 nM siNA, human NHLF cells, 24 hrs post-transfection, relative to non-targeting control, normalized to GAPDH; mean ± s.d. from 2 experiments
Procedure: as §1
NHLF (human; Lonza cat# CC-2512): Cells were cultured at 37° C. in the presence of 5% CO2 and grown Fibroblast Basal Medium (Lonza cat# CC-3β2) supplemented growth factors (provided with the kit) and 100 μg/mL of streptomycin and 100 U/mL penicillin.
as §2, §3, §4, §5, §6, §7, §8, §9, §10
A series of probes and primers were used to detect the various mRNA transcripts of the genes of TSLP, IL-8 and GAPDH in human cell lines. All the Taqman probes and primers for the experiments here-in described were supplied as pre-validated sets by Applied Biosystems, Inc. (see Table 2). […]

Substance	% KD mTSLP NIH3T3 (mTSLP mRNA)	% KD TSLP (TSLP mRNA)
25440-DC: siNA duplex: sense B cucuGGuuuuuuAAAuGuA TTB (SEQ ID NO: 63), antisense UACAuuuAAAAAAccAGAGUU (SEQ ID NO: 64) (sense CUCUGGUUUUUUAAAUGUATT; antisense UACAUUUAAAAAACCAGAGUU; sense: DNA at AGT, 2'-fluoro at CU, [invAb] at 5' end, 3' end, backbone not given here; antisense: sugars from the 5' end rrrmfffmmmmmmffmmmmmm, backbone not given here)	1 ± 33.1%	16 ± 20.1%
25453-DC: siNA duplex: sense B AuuAcAGAAGAGuuucuuA TTB (SEQ ID NO: 89), antisense UAAGAAAcucuucuGuAAuUU (SEQ ID NO: 90) (sense AUUACAGAAGAGUUUCUUATT; antisense UAAGAAACUCUUCUGUAAUUU; sense: DNA at AGT, 2'-fluoro at CU, [invAb] at 5' end, 3' end, backbone not given here; antisense: sugars from the 5' end rrrmmmmfffffffmfmmfmm, backbone not given here)	−8.6 ± 12.2%	81 ± 10.5%
25454-DC: siNA duplex: sense B AAuuuAuuuuGuGAAcAcu TTB (SEQ ID NO: 91), antisense AGUGuucAcAAAAuAAAuuUU (SEQ ID NO: 92) (sense AAUUUAUUUUGUGAACACUTT; antisense AGUGUUCACAAAAUAAAUUUU; sense: DNA at AGT, 2'-fluoro at CU, [invAb] at 5' end, 3' end, backbone not given here; antisense: sugars from the 5' end rrrmfffmfmmmmfmmmffmm, backbone not given here)	30.7 ± 22.5%	63 ± 16.9%
25445-DC: siNA duplex: sense B GGGAuAGAAAAGuAGGuAA TTB (SEQ ID NO: 73), antisense UUAccuAcuuuucuAucccUU (SEQ ID NO: 74) (sense GGGAUAGAAAAGUAGGUAATT; antisense UUACCUACUUUUCUAUCCCUU; sense: DNA at AGT, 2'-fluoro at U, [invAb] at 5' end, 3' end, backbone not given here; antisense: sugars from the 5' end rrrfffmfffffffmffffmm, backbone not given here)	36.1 ± 1.6%	−66 ± 42.7%
25460-DC: siNA duplex: sense B GucuGAAucAAAccucACA TTB (SEQ ID NO: 103), antisense UGUGAGGuuuGAuucAGAcUU (SEQ ID NO: 104) (sense GUCUGAAUCAAACCUCACATT; antisense UGUGAGGUUUGAUUCAGACUU; sense: sugars from the 5' end dfffdddffdddffffddddd, [invAb] at 5' end, 3' end, backbone not given here; antisense: sugars from the 5' end rrrmmmmfffmmfffmmmfmm, backbone not given here)	40.8 ± 1.4%	−7 ± 10.7%
25437-DC: siNA duplex: sense B cAGGGAGAcuccAAcuuAA TTB (SEQ ID NO: 57), antisense UUAAGuuGGAGucucccuGUU (SEQ ID NO: 58) (sense CAGGGAGACUCCAACUUAATT; antisense UUAAGUUGGAGUCUCCCUGUU; sense: sugars from the 5' end frddddddffffddfffdddd, [invAb] at 5' end, 3' end, backbone not given here; antisense: sugars from the 5' end rrrmmffmmmmfffffffmmm, backbone not given here)	33.8 ± 4.2%	−51 ± 36.2%
25459-DC: siNA duplex: sense B uGcccAGGcuAcccuGAAA TTB (SEQ ID NO: 101), antisense UUUcAGGGuAGccuGGGcAUU (SEQ ID NO: 102) (sense UGCCCAGGCUACCCUGAAATT; antisense UUUCAGGGUAGCCUGGGCAUU; sense: DNA at AGT, 2'-fluoro at CU, [invAb] at 5' end, 3' end, backbone not given here; antisense: sugars from the 5' end rrrfmmmmfmmfffmmmfmmm, backbone not given here)	15.7 ± 1.6%	−6 ± 27^ %
25462-DC: siNA duplex: sense B GGGcuAAGuucGAGcAAAu TTB (SEQ ID NO: 107), antisense AUUuGcucGAAcuuAGcccUU (SEQ ID NO: 108) (sense GGGCUAAGUUCGAGCAAAUTT; antisense AUUUGCUCGAACUUAGCCCUU; sense: DNA at AGT, 2'-fluoro at CU, [invAb] at 5' end, 3' end, backbone not given here; antisense: sugars from the 5' end rrrfmfffmmmfffmmfffmm, backbone not given here)	−9.5 ± 28.7%	23 ± 16.4%
25448-DC: siNA duplex: sense B uGuGAAcAcuuuuGAAAAu TTB (SEQ ID NO: 79), antisense AUUuucAAAAGuGuucAcAUU (SEQ ID NO: 80) (sense UGUGAACACUUUUGAAAAUTT; antisense AUUUUCAAAAGUGUUCACAUU; sense: DNA at AGT, 2'-fluoro at CU, [invAb] at 5' end, 3' end, backbone not given here; antisense: sugars from the 5' end rrrfffmmmmmfmfffmfmmm, backbone not given here)	45.1 ± 6.3%	80 ± 7%
25465-DC: siNA duplex: sense B cuGcuAuGAAAAucucuAu TTB (SEQ ID NO: 113), antisense AUAGAGAuuuucAuaGcAGUU (SEQ ID NO: 114) (sense CUGCUAUGAAAAUCUCUAUTT; antisense AUAGAGAUUUUCAUAGCAGUU; sense: DNA at AGT, 2'-fluoro at CU, [invAb] at 5' end, 3' end, backbone not given here; antisense: RNA at 1, 2, 3, 2'-O-methyl at 4, 5, 6, 7, 13, 16, 18, 19, 20, 21, 2'-fluoro at 8, 9, 10, 11, 12, 14, 17, other sugars and backbone not given here)	48.6 ± 2.2%	23 ± 4.8%
25435-DC: siNA duplex: sense B cccAAGcucuuAAAuGcuA TTB (SEQ ID NO: 53), antisense UAGcAuuuAAGAGcuuGGGUU (SEQ ID NO: 54) (sense CCCAAGCUCUUAAAUGCUATT; antisense UAGCAUUUAAGAGCUUGGGUU; sense: DNA at AGT, 2'-fluoro at CU, [invAb] at 5' end, 3' end, backbone not given here; antisense: sugars from the 5' end rrrfmfffmmmmmfffmmmmm, backbone not given here)	−60.6 ± 5.4%	−8 ± 25.4%
